# Results: PubChem BioAssay (NCI)
#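 Where inhibition never reached the appropriate level, the endpoint shown equals the highest concentration tested. Otherwise, values were interpolated linearly from a five-concentration, 48-hour dose response in 96-well plates. Abbreviation: GI50, concentration required for 50% inhibition of growth. The concentration for full growth arrest is given as TGI.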
# How the values were obtained:
# Test in all cases: NCI anticancer screen, dose series, 48 h
# HCT-15 colon = tested on: HCT-15 colon
# OVCAR-4 ovarian = tested on: OVCAR-4 ovarian
# OVCAR-8 ovarian = tested on: OVCAR-8 ovarian
# UO-31 renal = tested on: UO-31 renal
# SR leukemia = tested on: SR leukemia
# SF-539 CNS = tested on: SF-539 CNS
# UACC-257 melanoma = tested on: UACC-257 melanoma
# BT-549 breast = tested on: BT-549 breast
# MDA-MB-435 = tested on: MDA-MB-435
# MDA-MB-231 breast = tested on: MDA-MB-231 breast
# M14 melanoma = tested on: M14 melanoma
Compound,TGI (HCT-15 colon) [µM],TGI (OVCAR-4 ovarian) [µM],TGI (OVCAR-8 ovarian) [µM],TGI (UO-31 renal) [µM],TGI (SR leukemia) [µM],TGI (SF-539 CNS) [µM],TGI (UACC-257 melanoma) [µM],TGI (BT-549 breast) [µM],TGI (MDA-MB-435) [µM],TGI (MDA-MB-231 breast) [µM],TGI (M14 melanoma) [µM],GI50 (HCT-15 colon) [µM],GI50 (M14 melanoma) [µM],GI50 (OVCAR-4 ovarian) [µM],GI50 (OVCAR-8 ovarian) [µM],GI50 (UO-31 renal) [µM],GI50 (SR leukemia) [µM],GI50 (SF-539 CNS) [µM],GI50 (UACC-257 melanoma) [µM],GI50 (MDA-MB-435) [µM]
COc1cccc(NC(=O)CC(=O)NN)c1,> 100,> 100,> 100,> 100,> 100,> 100,> 100,> 100,> 100,> 100,–,–,–,–,–,–,–,–,–,–
C/C(=C\C(=O)Nc1ccc2n[nH]nc2c1)Nc1ccc2n[nH]nc2c1,> 100,> 100,> 100,> 100,> 100,> 100,> 100,–,–,–,> 100,–,–,–,–,–,–,–,–,–
CC1=NN(c2nc(N)nc(CO)n2)C(C)(C)C1,> 100,> 100,> 100,> 100,–,> 100,> 100,> 100,> 100,> 100,> 100,–,–,–,–,–,–,–,–,–
CCOC(=O)C(O)(CC1=NC(C(=O)OC)(C(=O)OC)C(c2cccc(C=O)c2)O1)C(=O)OCC (configuration not stated),> 100,> 100,> 100,> 100,> 100,–,> 100,> 100,> 100,–,> 100,–,–,–,–,–,–,–,–,–
CCOC(=O)C(C)c1nc2cc(F)c(F)cc2[nH]c1=O (configuration not stated),> 100,> 100,> 100,> 100,–,> 100,> 100,> 100,> 100,> 100,> 100,–,–,–,–,–,–,–,–,–
C[N+]1(C)CCCC(C#N)(c2ccccc2)CC1 (configuration not stated),> 100,> 100,> 100,> 100,> 100,–,> 100,–,–,–,> 100,–,–,–,–,–,–,–,–,–
Cc1c2cc[n+](Cc3ccc(I)cc3)cc2c(C)c2c1[nH]c1ccccc12,> 25,–,11.8,15.8,–,> 15.8,2.09,–,–,–,–,–,–,–,–,–,–,–,–,–
Cc1ccc(/C=c2\cc3oc(=O)c4cccc(c4-3)c2=O)cc1,> 100,> 100,> 100,> 100,> 100,> 100,> 100,–,> 100,> 100,> 100,–,–,–,–,–,–,–,–,–
Cc1ccc(S(=O)(=O)N/N=C2\C=CC3(CC2)C(=O)N(I)c2ccccc23)cc1 (configuration not stated),> 100,> 100,> 100,> 100,> 100,> 100,> 100,–,> 100,> 100,> 100,–,–,–,–,–,–,–,–,–
CN(C)C(=O)C(F)(F)C(c1ccccc1)C1C(=O)N(C)C(=O)N(C)C1=O (configuration not stated),> 100,> 100,> 100,> 100,–,–,> 100,> 100,> 100,> 100,> 100,–,–,–,–,–,–,–,–,–
CSc1cc(Cl)c(C)cc1S(=O)(=O)NC(=O)NNc1ccc(C)cc1,> 100,> 100,> 100,–,> 100,> 100,–,–,> 100,> 100,> 100,–,–,–,–,–,–,–,–,–
COC(=O)c1ccccc1CC1Cc2c(C)ccc(C)c2C1=O (configuration not stated),> 100,> 100,> 100,> 100,–,> 100,48.2,> 100,59.7,> 100,> 100,–,–,–,–,–,–,–,–,–
COc1ccc(OC)c2c(C(C)=O)cccc12,> 100,–,> 100,> 100,> 100,> 100,> 100,–,–,> 100,–,–,–,–,–,–,–,–,–,–
Oc1c(Br)cc2c(c1Br)-c1c(c(O)c3c4c1=NCCC=4C=N3)NCC2,30.6,23.5,28.5,39.8,–,26.5,20,–,–,–,–,–,–,–,–,–,–,–,–,–
CNC(=S)N/N=C/C(C)=N/NC(=S)NC,> 100,–,–,> 100,–,> 100,–,–,–,–,> 100,–,–,–,–,–,–,–,–,–
Nc1nc(Cl)c(CO)c(NCC2(CO)CCC2)n1,> 100,> 100,> 100,> 100,> 100,> 100,> 100,> 100,> 100,> 100,–,–,–,–,–,–,–,–,–,–
CC1CC(=O)N(N(C)C)C2(C#N)C(=O)N=C(N)C12C#N (configuration not stated),> 100,> 100,> 100,> 100,> 100,> 100,> 100,–,> 100,> 100,> 100,–,–,–,–,–,–,–,–,–
N#C[S-].[La+3].c1ccc(-c2ccccn2)nc1.c1ccc(-c2ccccn2)nc1.c1ccc(-c2ccccn2)nc1,> 100,> 100,> 100,55.9,> 100,> 100,65.2,–,–,–,27.9,7.07,12.1,20.4,25.9,10.8,34.2,33.2,24.3,–
[CH3][Sn]([CH3])([CH3])[S]C(=S)N1CCOCC1,> 100,4.21,> 85.4,> 25.1,–,–,14.9,–,–,–,–,1.81,–,0.818,3.69,6.24,–,–,1.22,–
CC(=O)Oc1ccc2cc(Oc3cc(Cl)c(Cl)cc3Cl)c(=O)oc2c1,26.3,> 100,34.7,25.9,67.6,31.2,50.6,26.7,–,33.7,35.2,–,–,–,–,–,–,–,–,–
CCN(CC)c1c(C(C)(C)C)c(=O)n2ccsc2c1OC(C)=O,30.7,28.9,29.1,31.7,–,33.3,30.7,30.3,32.5,32.5,31.2,–,–,–,–,–,–,–,–,–
CCOP1(=O)CC(C)=C(Cl)C(OC)C1 (configuration not stated),> 100,> 100,> 100,–,> 100,> 100,> 100,> 100,> 100,> 100,> 100,–,–,–,–,–,–,–,–,–
CCCCCCCCCCCC1N=C(N)N=C(N)N1c1cccc(Br)c1 (configuration not stated),26.3,–,3.31,13,–,–,–,–,1.79,–,–,5.2,–,–,1.73,4.89,–,–,–,0.523
